Source: ChEMBL document CHEMBL4602728, “6-Amino[1,2,5]oxadiazolo[3,4-b]pyrazin-5-ol Derivatives as Efficacious Mitochondrial Uncouplers in STAM Mouse Model of Nonalcoholic Steatohepatitis” (J Med Chem, 2020)
pEC50: −log10 of the molar value.

Test: Induction of mitochondrial uncoupling in rat L6 cells assessed as increase in oxygen consumption rate incubated for 90 mins by Seahorse XF analyzer based assay
Format: mitochondria, Mitochondria

Compound | pEC50
Oc1nc2nonc2nc1Nc1ccc(OC(F)(F)F)cc1Cl | 5.85
Cc1cc(Nc2nc3nonc3nc2O)ccc1OCC(F)(F)F | 5.15
Oc1nc2nonc2nc1Nc1cccc(OC(F)(F)F)c1 | 5.29
O=[N+]([O-])c1cc(Nc2nc3nonc3nc2O)ccc1OC(F)(F)F | 4.27
Oc1nc2nonc2nc1Nc1cc(C(F)(F)F)ccc1F | 5.29
Oc1nc2nonc2nc1Nc1cccc(S(F)(F)(F)(F)F)c1 | 5.43
Oc1nc2nonc2nc1Nc1ccc(OC(F)(F)F)c(F)c1 | 5.54
COc1cccc(Nc2nc3nonc3nc2O)c1 | 4.12
Cc1cc(OC(F)(F)F)ccc1Nc1nc2nonc2nc1O | 5.34
Cc1ccc(Nc2nc3nonc3nc2O)cc1 | 4.28
CC(C)(C)c1cccc(Nc2nc3nonc3nc2O)c1 | 5.66
Oc1nc2nonc2nc1Nc1ccc(OCC(F)(F)F)c(F)c1 | 4.98
Oc1nc2nonc2nc1Nc1ccc(OC(F)(F)Cl)cc1 | 5.72
Cc1ccc(CNc2nc3nonc3nc2O)cc1 | 4.27
Oc1nc2nonc2nc1Nc1ccc(C(F)(F)F)cc1F | 5.59
CC(=O)c1ccc(Nc2nc3nonc3nc2O)cc1 | 4.03
Oc1nc2nonc2nc1NCc1ccc(OC(F)(F)F)cc1 | 4.87
CCCCCc1ccc(Nc2nc3nonc3nc2O)c(F)c1 | 5.82
Oc1nc2nonc2nc1Nc1ccc(OCC(F)(F)F)cc1 | 4.37
CCc1ccc(Nc2nc3nonc3nc2O)c(F)c1 | 5.17
Cc1ccc(C(F)(F)F)cc1Nc1nc2nonc2nc1O | 4.48
CCCCc1ccc(Nc2nc3nonc3nc2O)c(F)c1 | 5.96
Oc1nc2nonc2nc1Nc1ccc(C(F)(F)F)cc1 | 4.98
Oc1nc2nonc2nc1Nc1ccccc1F | 4.90
Oc1nc2nonc2nc1Nc1ccccc1C(F)(F)F | 4.97
Cc1cccc(C)c1Nc1nc2nonc2nc1O | < 4.00
Oc1nc2nonc2nc1Nc1ccc(OCCCC(F)(F)F)c(C(F)(F)F)c1 | 5.68
Oc1nc2nonc2nc1Nc1ccc(OCCCC(F)(F)F)c(F)c1 | 5.38
Oc1nc2nonc2nc1Nc1ccc(OCc2ccccc2)cc1 | 5.62
Oc1nc2nonc2nc1Nc1ccc(Cl)cc1 | 4.93

The remaining compounds from weak to strong by pEC50, led by results:

pEC50 | Compound
3.96 | Oc1nc2nonc2nc1NCCC(F)(F)F
4.18 | Oc1nc2nonc2nc1Nc1ccccc1
4.18 | Oc1nc2nonc2nc1NCCc1ccccc1
4.33 | Oc1nc2nonc2nc1Nc1ccc2c(c1)OCO2
4.41 | Oc1nc2nonc2nc1Nc1ccc(F)cc1
4.42 | Oc1nc2nonc2nc1NC(c1ccccc1)c1ccccc1
4.45 | CC(C)(C#N)c1ccc(Nc2nc3nonc3nc2O)cc1
4.47 | Oc1nc2nonc2nc1Nc1ccc(C(O)(C(F)(F)F)C(F)(F)F)cc1
4.60 | CCc1cccc(Nc2nc3nonc3nc2O)c1
4.69 | Oc1nc2nonc2nc1Nc1ccc(OC(F)F)cc1
4.94 | Oc1nc2nonc2nc1Nc1ccc(C(F)(F)F)c(F)c1
4.97 | CCc1ccc(Nc2nc3nonc3nc2O)cc1
5.01 | Oc1nc2nonc2nc1Nc1cccc(F)c1F
5.12 | Oc1nc2nonc2nc1Nc1ccc2c(c1)OC(F)(F)O2
5.15 | Oc1nc2nonc2nc1Nc1ccc(OC(F)(F)C(F)F)cc1
5.20 | Oc1nc2nonc2nc1Nc1ccccc1Cl
5.31 | CC(Nc1nc2nonc2nc1O)C12CC3CC(CC(C3)C1)C2 (stereo not given)
5.33 | CCCCCCc1ccc(Nc2nc3nonc3nc2O)cc1
5.40 | Oc1nc2nonc2nc1Nc1ccc(OCC(F)(F)F)c(C(F)(F)F)c1
5.41 | Oc1nc2nonc2nc1Nc1ccc(S(F)(F)(F)(F)F)cc1
5.42 | COc1cc(OC(F)(F)F)ccc1Nc1nc2nonc2nc1O
5.47 | CCCCCCCCNc1nc2nonc2nc1O
5.52 | Oc1nc2nonc2nc1Nc1cccc(OCc2ccc(C(F)(F)F)cc2)c1
5.64 | Oc1nc2nonc2nc1Nc1ccc(OC(F)(F)F)cc1F
5.74 | Oc1nc2nonc2nc1Nc1ccc(OCC2CC2)c(C(F)(F)F)c1
